The RepoRT retention time repository

Assay: Agilent ZORBAX 300 SB-C18, 150 × 1 mm, 3.5 µm; A: water + 0.01% heptafluorobutyric acid; B: acetonitrile + 0.01% heptafluorobutyric acid; gradient (min/%B) 0/0 100/90
Conditions: stereoisomer not certain
Work on `CN(C)c1ccc(C=NNc2nc3ccccc3c(=O)n2-c2ccccc2)cc1` yielded an LC retention time of 14.3 min. `C=CCNC1CCCCC1` showed an LC retention time of 7.93 min. In the case of `Nc1cccc(Nc2ccccc2)c1`, the LC retention time is reported as 9.53 min. `CCCNC` showed an LC retention time of 5.85 min. Work on `CCCOC(=O)C1CCCCN1` (configuration not stated) yielded an LC retention time of 7.95 min. With `Cc1ccncn1` the LC retention time was 6.89 min. `Cc1ccoc1CC[N+](C)(C)C` showed an LC retention time of 7.96 min. In the case of `CN(C)C(=O)C1OC(C)(C)OC1C(=O)N(C)C` (configuration not stated), the LC retention time is reported as 8.25 min. For `Nc1ncc2c(n1)CCC2`, the LC retention time was 6.96 min. Compound `c1ccc(-c2cnc(-c3ccncc3)o2)cc1` has an LC retention time of 11.9 min. Work on `CC(C)N(C)C` yielded an LC retention time of 5.87 min. Compound `CC(C)(C)c1ccc(-c2nc3ccccc3s2)cc1` has an LC retention time of 21.3 min. Compound `Nc1ccn(CC(O)CO)c(=O)n1` (configuration not stated) has an LC retention time of 4.4 min. `CCCCN1CNC(=S)N(CCc2ccccc2)C1` gave an LC retention time of 13.8 min. In the case of `CNCc1cccn1C`, the LC retention time is reported as 7.09 min. `Nc1ccncc1` showed an LC retention time of 5.68 min. For `NNC(=O)CCCO`, the LC retention time was 2.37 min. For `CC(C)(C)c1ccc(C(=O)Nc2ccc(N)cc2)cc1`, the LC retention time was 11.2 min. In the case of `C1CCC(NC2CCCCC2)CC1`, the LC retention time is reported as 9.69 min. Work on `COc1ccc(Cc2c(O)n(-c3ccccc3)c(=O)[nH]c2=O)c(OC)c1` yielded an LC retention time of 11.6 min. In the case of `Cc1ccc(C(=O)O)c(=O)[nH]1`, the LC retention time is reported as 6.43 min. With `Cc1ccccc1N1C(=O)NC(=O)C(=Cc2cccn2C)C1=O` the LC retention time was 10.9 min. `Nc1nc(=Nc2ccccc2)n2c(n1)sc1ccccc12` gave an LC retention time of 10.4 min. Work on `CCCCCCCCCC(N)=O` yielded an LC retention time of 13.8 min. Compound `CN(C)c1ccc(C(O)c2ccc(N(C)C)cc2)cc1` has an LC retention time of 9.42 min. With `CC(C)c1ccc(CC(NC(=O)c2ccccc2)C(=O)NCC(=O)O)cc1` (configuration not stated) the LC retention time was 12.5 min. `CC(=O)Nc1ccc(C(=O)NCc2ccccn2)cc1` gave an LC retention time of 7.41 min. With `CC(=O)c1c(C(C)=O)c(C)n(CCc2c[nH]c3ccccc23)c1C` the LC retention time was 12.5 min. Compound `CC(=O)Nc1ccc(C(=O)NCCc2c[nH]c3ccc(C)cc23)cc1` has an LC retention time of 11.1 min. Work on `CN(C)CCN(C)CCN(C)CCN(C)C` yielded an LC retention time of 7.61 min. Work on `O=C(CCc1ccccc1)NNC(=S)NCc1ccccc1` yielded an LC retention time of 12.4 min. For `CN1C(=O)CC(N2CCN(C(=O)CN3CCCC3)CC2)C1=O` (configuration not stated), the LC retention time was 7.12 min. Compound `Nc1ncnc2[nH]ncc12` has an LC retention time of 5.98 min. In the case of `CCN(CCCc1ccccc1)CCCc1ccccc1`, the LC retention time is reported as 12.5 min. Work on `COC(=O)Cn1c2c(c3ccccc31)CCCC2` yielded an LC retention time of 16.2 min. Work on `CN(CCNc1ccccc1)C(N)=O` yielded an LC retention time of 7.86 min. `CC1CCCCN1C(=O)c1ccccc1N` (configuration not stated) gave an LC retention time of 11.1 min. Work on `CN(CCO)C(=O)Nc1ccccc1` yielded an LC retention time of 7.92 min. `COc1ccccc1CC(=O)Nc1cccc(C)c1` showed an LC retention time of 13.9 min. Compound `CC(=O)N(C)C1=C(N2CCCC2)C(=O)c2ccccc2C1=O` has an LC retention time of 11.2 min. With `c1cnccn1` the LC retention time was 5.91 min. With `O=C(O)CNc1ccccc1C(=O)O` the LC retention time was 9.2 min. Compound `CCN(CC)c1ccc(C=Nc2ccccc2)c(O)c1` has an LC retention time of 11.5 min. Compound `Cc1[nH]c(C)c(C(=O)c2ccccc2)c1C` has an LC retention time of 12.5 min. `CCNC(=O)CC(=O)NCC` gave an LC retention time of 5.95 min. With `CC12CCC(=O)C=C1CCC1C2CCC2(C)C1CCC2(C)O` (configuration not stated) the LC retention time was 14.5 min. `Nc1ccc(C(=O)NC=C2CCCC2)cc1` gave an LC retention time of 7.87 min. `CCCC(CCC)C(=O)NC1CCN(Cc2ccccc2)CC1` showed an LC retention time of 10.2 min. Compound `Nc1cccc2c1CCC2` has an LC retention time of 8.43 min. Work on `CCNCC` yielded an LC retention time of 5.17 min. In the case of `CCC1NC(=O)NC(C)=C1C(C)=O` (configuration not stated), the LC retention time is reported as 7.34 min. In the case of `COC(=O)c1ccc(C(=O)OC)c(NC(=O)CC(c2ccccc2)c2ccccc2)c1`, the LC retention time is reported as 18 min. In the case of `CN1CC(=O)N(c2cccc(N)c2)C1=O`, the LC retention time is reported as 6.98 min. Work on `O=C(O)C1Cc2ccccc2CN1C(=O)c1ccccc1` (configuration not stated) yielded an LC retention time of 11.2 min. `CC(=O)c1c[nH]cc1C` showed an LC retention time of 7.66 min. For `NC1CCCCCC1`, the LC retention time was 7.85 min. `Cc1cc(C)cc(N)c1` gave an LC retention time of 8.29 min. For `C[n+]1cccc(C(=O)O)c1`, the LC retention time was 1.49 min. Compound `CC(C)Cc1ccc(C(C)C(=O)NCCCn2c3ccccc3c3ccccc32)cc1` (configuration not stated) has an LC retention time of 20.1 min. For `CCCCCCCCCCCCCCCCCCNC`, the LC retention time was 19 min. `Cc1ccc(N2C(=O)CC(N(CCc3ccccc3)C(=S)Nc3cccc(C)c3)C2=O)cc1` (configuration not stated) showed an LC retention time of 17.6 min. For `CC[N+](C)(CC)CC`, the LC retention time was 6.48 min. Work on `CN(C)CCCNC(=O)C(=O)NC1CC1` yielded an LC retention time of 6.89 min. With `COC1N(c2ccccc2)N=C(c2ccccc2)N1c1ccccc1` (configuration not stated) the LC retention time was 16.8 min. `CCN1C(=O)CC(N2CCC(n3c(=O)[nH]c4ccccc43)CC2)C1=O` (configuration not stated) gave an LC retention time of 8.81 min. Compound `Cc1cc(O)c(C(C)C)cc1NC(=O)Cn1nc(C)c2ccccc2c1=O` has an LC retention time of 11.9 min. Work on `NC(=O)CCN1CCNCC1` yielded an LC retention time of 6.16 min. For `CCc1ccccc1NCC(=O)O`, the LC retention time was 11.1 min. `CN(c1ccccc1)c1ccc(C=C2CCc3ccccc3C2=O)cc1` showed an LC retention time of 20.3 min. With `Cc1cccc(C)c1NC(=S)Nc1ccccc1` the LC retention time was 13.1 min. With `CCOC(=O)c1ccc(NC(=O)CC(C)(C)C)cc1` the LC retention time was 14.8 min. In the case of `CCN(CC)CCN(CC)CC`, the LC retention time is reported as 7.19 min. In the case of `O=C(CN1C(=O)c2ccccc2C1=O)Nc1ccccc1C(=O)N1CCN(c2ccccc2)CC1`, the LC retention time is reported as 13.1 min. With `CN(C)CCNC1=CC(=O)CC(C)(C)C1` the LC retention time was 7.29 min. In the case of `O=P(O)(O)CN(CP(=O)(O)O)CP(=O)(O)O`, the LC retention time is reported as 1.08 min. Work on `CCCCCCC(C)NCCO` (configuration not stated) yielded an LC retention time of 9.31 min. `CC1=NC(=O)NC(c2ccccc2)C1C(=O)OCc1ccccc1` (configuration not stated) gave an LC retention time of 12.6 min. In the case of `c1ccc(CNCc2ccccc2)cc1`, the LC retention time is reported as 9.71 min. `c1ccc(Nc2ccccc2)cc1` gave an LC retention time of 15.4 min. With `O=c1cc[nH]cc1` the LC retention time was 4.89 min. With `O=C(O)c1c[nH]c(=O)[nH]1` the LC retention time was 1.64 min. `Cc1cccc(C)c1NC(=S)NCC(C)NC(=S)Nc1c(C)cccc1C` (configuration not stated) showed an LC retention time of 13.9 min. In the case of `Cc1c(N=Cc2ccncc2)c(=O)n(-c2ccccc2)n1C`, the LC retention time is reported as 8.92 min. Compound `OCC(CO)(CO)c1ccccn1` has an LC retention time of 4.36 min. Work on `c1ccc(CCn2cccc2)cc1` yielded an LC retention time of 15.5 min. Work on `O=c1[nH]c2ccccc2c(=O)n1CCO` yielded an LC retention time of 7.39 min. Compound `CC(N)Cc1ccc2oc3ccccc3c2c1` (configuration not stated) has an LC retention time of 10.1 min. `Nc1ccccc1C(=O)N1CCNC(=O)C1` gave an LC retention time of 6.83 min. Compound `CCCCc1c(O)n(-c2ccc(O)cc2)n(-c2ccccc2)c1=O` has an LC retention time of 12.8 min. `NNC(=S)Nc1ccccc1` gave an LC retention time of 8.31 min. Work on `CCc1ncc(C)[nH]1` yielded an LC retention time of 6.62 min. For `c1ccc(SCSc2ccccn2)nc1`, the LC retention time was 13.7 min. `Cn1ccc(C(=O)O)cc1=O` gave an LC retention time of 5.27 min. Compound `Nc1ccc2c(c1)C(=O)N(c1ccc3ccccc3c1)C2=O` has an LC retention time of 13.6 min. In the case of `CCN1CC(CCN2CCOCC2)C(c2ccccc2)(c2ccccc2)C1=O` (configuration not stated), the LC retention time is reported as 9.72 min. With `Nc1ccccn1` the LC retention time was 6.12 min. `O=Cc1ccc[nH]1` showed an LC retention time of 6.97 min. `Cc1cc(=O)[nH]c(N)n1` gave an LC retention time of 5.97 min. `Cc1ccc2nc[nH]c2c1` showed an LC retention time of 7.74 min. With `S=c1nc(C2CCCCC2)[nH][nH]1` the LC retention time was 8.76 min. For `CC1(C)SC2C(NC(=O)C(N)c3ccc(O)cc3)C(=O)N2C1C(=O)O` (configuration not stated), the LC retention time was 7.52 min. `COc1ccc(C=CC(=O)C=Cc2ccc(OC)cc2OC)c(OC)c1` gave an LC retention time of 16.6 min. `NCCCn1ccnc1` gave an LC retention time of 6.66 min. `c1cc2c(cc1NC1=NCCCCC1)OCCO2` showed an LC retention time of 9.12 min. `Cn1c(=O)c2ccc(C(=O)Nc3ccc4ccccc4n3)cc2c(=O)n1C` gave an LC retention time of 10.4 min. For `Cc1cc(C)c2ccc3ccccc3c2n1`, the LC retention time was 12.4 min. For `NCCCN1CCc2ccccc21`, the LC retention time was 8.54 min. `CN(C)CCCNCc1ccc2[nH]c3c(c2c1)CCCC3` showed an LC retention time of 8.71 min. `CN(C)c1ccc(C(=O)N2CCCC2)cc1` showed an LC retention time of 10.4 min. `Cc1nc2ccc(N)cc2nc1C` gave an LC retention time of 7.33 min. `Cc1cccc(C(=O)NNC(=O)c2ccccc2C(=O)c2ccccc2)c1` showed an LC retention time of 13.3 min. For `CC(C)NC(=O)C(=O)NCCCO`, the LC retention time was 6.9 min. With `CC(=O)c1c(-c2ccccc2)[nH]c2ccccc12` the LC retention time was 13 min. `NC(CC(=O)O)c1ccccc1` (configuration not stated) gave an LC retention time of 5.59 min. Compound `Cc1nc2c(ccc3ccccc32)c(C)c1C` has an LC retention time of 10.9 min. Compound `NCc1nccc2ccccc12` has an LC retention time of 7.87 min. In the case of `c1cc(-c2noc(-c3cnccn3)n2)ccn1`, the LC retention time is reported as 8.8 min. `CNC(=O)c1cc2c(n(-c3ccccc3)c1=O)CCCC2=O` gave an LC retention time of 9.8 min. With `O=C(O)CCN1CCCc2ccccc21` the LC retention time was 11.3 min. For `Cc1cccc(N2CN(Cc3ccccc3)CNC2=S)c1C`, the LC retention time was 14.1 min. Work on `O=C(Nc1ccc2c(c1)oc1ccccc12)c1ccc(C2CCCCC2)cc1` yielded an LC retention time of 20.1 min. In the case of `CC(=O)Nc1cc(NC(C)=O)nc(NC(C)=O)n1`, the LC retention time is reported as 7.21 min. Work on `CCOC(=O)c1[nH]c(C)c(C(=O)OCc2ccccc2)c1C` yielded an LC retention time of 15.8 min. For `CC(C)NCC(O)COc1cccc2ccccc12` (configuration not stated), the LC retention time was 10.4 min. `O=C1C(=Cc2cccs2)CCCC1=Cc1cccs1` showed an LC retention time of 18.5 min. For `Nc1ccccc1NC(=O)Nc1ccccc1N`, the LC retention time was 8.05 min. In the case of `O=c1c2ccccc2nc(-c2ccccc2)n1-c1ccccc1`, the LC retention time is reported as 13.8 min. `NCc1ccccc1CN` gave an LC retention time of 7.03 min. `COc1cc(OC)c2cc[nH]c2c1` showed an LC retention time of 11.1 min. For `COc1ccccc1NC(=O)c1ccc(COc2ccc3c(c2)CCC3)cc1`, the LC retention time was 19.2 min. Work on `Cc1ccccc1C(=O)NC1CC(C)(C)NC(C)(C)C1` yielded an LC retention time of 8.46 min. With `CCOC(=O)C=CC(=O)NNC(=O)C(c1ccccc1)c1ccccc1` the LC retention time was 12.8 min.
